Assay results taken from patent US20060178415A1, “Azole derivatives as antifungal agents” (priority 2002, published 2006).
Values after ≈ are worked out from the molar mass of the structure shown. Where two headings read alike, the source gives them in different places.

Experiments:
[1] = system: ergosterol P^450DM in A. fumigatus lysates; conditions: cited from earlier work
[2] = molecular target: T1, ergosterol P^450DM in C. albicans lysates (Candida albicans, UniProt P10613); conditions: cited from earlier work
T1 construct: host or cells: C. albicans lysate

[3] = system: A. fum.; assay: In vitro antifungal MIC, NCCLS M38P broth method in RPMI 1640/MOPS pH 7; assay type: cell-based, Aspergillus fumigatus; conditions: for MIC: Aspergillus fumigatus
From the text: The in vitro evaluation of the antifungal activity of the compound of this invention (as shown in Table I) can be performed by determining the minimum inhibitory concentration (MIC) which is the concentration of the test compound in Rosewell Park Memorial Institute (RPMI) 1640 liquid medium buffered with 3-(Morpholino)propane sulfonic acid (MOPS) to pH 7, at which there is significant inhibition of the particular fungi. In practice the National Committee for Clinical Laboratory Standard (NCCLS) M27A document for Candida and Cryptococcus and M38P for Aspergillus was used to determine the MIC and readings recorded only when the Quality Control results fell into the acceptable range. After MIC results had been recorded, 100 μL from each of the well showing no growth was spread over Sabouraud Dextrose Agar (SDA) to determine the minimum fungicidal concentration (MFC).

[4] = A. fumigatus strain 1008, RPMI 1640, MOPS pH 7, read-out: MIC (A. fum.) 1008
[5] = A. fumigatus strain Si-l, RPMI 1640, MOPS pH 7, read-out: MIC (A. fum.) Si-l
[6] = A. fumigatus strain 1008, RPMI 1640, MOPS pH 7
[7] = A. fumigatus strain Si-l, RPMI 1640, MOPS pH 7
[8] = pH 7, read-out: MIC (A. fum.) 1008
[9] = pH 7, read-out: MIC (A. fum.) Si-l

T1 sequence (P10613 whole entry): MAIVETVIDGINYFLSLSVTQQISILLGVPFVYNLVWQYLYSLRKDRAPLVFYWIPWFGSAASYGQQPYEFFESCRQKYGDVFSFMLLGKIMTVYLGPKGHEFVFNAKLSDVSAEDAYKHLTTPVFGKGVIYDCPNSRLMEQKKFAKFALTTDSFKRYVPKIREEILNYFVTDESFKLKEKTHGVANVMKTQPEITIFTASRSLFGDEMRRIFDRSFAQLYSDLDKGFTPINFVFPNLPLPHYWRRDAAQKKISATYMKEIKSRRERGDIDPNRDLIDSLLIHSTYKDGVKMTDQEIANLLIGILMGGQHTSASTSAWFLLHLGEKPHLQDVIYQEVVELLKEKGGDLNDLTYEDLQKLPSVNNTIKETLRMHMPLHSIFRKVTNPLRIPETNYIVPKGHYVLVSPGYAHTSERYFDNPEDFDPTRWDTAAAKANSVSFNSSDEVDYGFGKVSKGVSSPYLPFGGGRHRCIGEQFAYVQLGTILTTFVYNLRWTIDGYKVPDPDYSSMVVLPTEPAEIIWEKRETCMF

**Q.** With `C[C@@H](c1ncncc1F)[C@](O)(Cn1cncn1)c1ccc(F)cc1F` [Voriconazole] as the compound, how does the “fold greater inhibition of ergosterol P450DM compared to fluconazole” value [1] read?
**A.** The value was 160 fold.

**Q.** What about the “fold greater inhibition of ergosterol P450DM compared to fluconazole” value [2] of the same compound?
**A.** The value was 1.6 fold.

**Q.** For `C[C@@H](N(NC(=O)OC(C)(C)C)C(=S)Nc1ccc(OC(F)(F)F)cc1)[C@](O)(Cn1cncn1)c1ccc(F)cc1F` [Compound No. 6, 1-t-Butoxycarbonyl-2-[(1R,2R)-2-(2,4-difluorophenyl)-2-hydroxy-1-methyl-3-(1H-1,2,4-triazol-1-yl)propyl]-4-[4-trifluoromethoxyphenyl]thiosemicarbazide], which MIC [3, 4] is on record?
**A.** Its MIC is 8 µg/mL (≈ 13.3 µM).

**Q.** What about the MIC [3, 5] of the same compound?
**A.** Its MIC is 8 µg/mL (≈ 13.3 µM).

**Q.** With `C[C@@H](N(N)C(=S)Nc1ccc(Cl)cn1)[C@](O)(Cn1cncn1)c1ccc(F)cc1F` [Compound No. 37, 2-[(1R,2R)-2-(2,4-Difluorophenyl)-2-hydroxy-1-methyl-3-(1H-1,2,4-triazol-1-yl)propyl]-4-[3-chloropyridin-6-yl]thiosemicarbazide] as the compound, how does the MIC [3, 4] read?
**A.** Its MIC is 0.5 µg/mL (≈ 1.1 µM).

**Q.** What about the MIC [3, 5] of the same compound?
**A.** The MIC was 1 µg/mL (≈ 2.2 µM).

**Q.** For `C[C@@H](N(N)C(=S)NCc1cccs1)[C@](O)(Cn1cncn1)c1ccc(F)cc1F` [Compound No. 36, 2-[(1R,2R)-2-(2,4-difluorophenyl)-2-hydroxy-1-methyl-3-(1H-1,2,4-triazol-1-yl)propyl]-4-[2-thiophenmethyl]thiosemicarbazide], which “MIC (A. fum.) 1008” value [3, 6] is on record?
**A.** Its value is 4 µg/mL (≈ 9.12 µM).

**Q.** What about the “MIC (A. fum.) Si-l” value [3, 7] of the same compound?
**A.** The value was 2 µg/mL (≈ 4.56 µM).

**Q.** For `C[C@@H](n1ncn(-c2ccc(Cl)cn2)c1=S)[C@](O)(Cn1cncn1)c1ccc(F)cc1F` [Compound No. 55, 2-[(1R,2R)-2-(2,4-Difluorophenyl)-2-hydroxy-1-methyl-3-(1H-1,2,4-triazol-1-yl)propyl]-4-[3-chloropyridin-6-yl]-(2H,4H)-1,2,4-triazol-3-thione], which MIC [3, 4] is on record?
**A.** Its MIC is 4 µg/mL (≈ 8.62 µM).

**Q.** What about the MIC [3, 5] of the same compound?
**A.** The MIC was 2 µg/mL (≈ 4.31 µM).

**Q.** With `C[C@@H](N(NC(=O)OC(C)(C)C)C(=O)Nc1ccc(Cl)cc1)[C@](O)(Cn1cncn1)c1ccc(F)cc1F` [Compound No. 25, 1-t-Butoxycarbonyl-2-[(1R,2R)-2-(2,4-difluorophenyl)-2-hydroxy-1-methyl-3-(1H-1,2,4-triazol-1-yl)propyl]-4-[4-chlorophenyl]semicarbazide] as the compound, how does the MIC [3, 8] read?
**A.** Its MIC is greater than 16 µg/mL.

**Q.** And the MIC [3, 9]?
**A.** The MIC was greater than 16 µg/mL.

**Q.** Which results are given for `C[C@@H](N(N)C(=O)Nc1ccc(Cl)cc1)[C@](O)(Cn1cncn1)c1ccc(F)cc1F` [Compound No. 28, 2-[(1R,2R)-2-(2,4-difluorophenyl)-2-hydroxy-1-methyl-3-(1H-1,2,4-triazol-1-yl)propyl]-4-[4-chlorophenyl]semicarbazide]?
**A.** MIC [3, 8]: > 16 µg/mL; MIC [3, 9]: > 16 µg/mL

**Q.** Which “MIC (A. fum.) 1008” value [3, 6] does the source give for `C[C@@H](N(NC(=O)OC(C)(C)C)C(=S)Nc1cccc2ccccc12)[C@](O)(Cn1cncn1)c1ccc(F)cc1F` [Compound No. 14] here?
**A.** The value was greater than 16 µg/mL.

**Q.** And the “MIC (A. fum.) Si-l” value [3, 7]?
**A.** Its value is greater than 16 µg/mL.

**Q.** For `C[C@@H](n1ncn(Cc2ccco2)c1=S)[C@](O)(Cn1cncn1)c1ccc(F)cc1F` [Compound No. 53, 2-[(1R,2R)-2-(2,4-Difluorophenyl)-2-hydroxy-1-methyl-3-(1H-1,2,4-triazol-1-yl)propyl]-4-[2-furanmethyl]-(2H,4H)-1,2,4-triazol-3-thione], which “MIC (A. fum.) 1008” value [3, 6] is on record?
**A.** The value was 8 µg/mL (≈ 18.5 µM).

**Q.** And the “MIC (A. fum.) Si-l” value [3, 7]?
**A.** The value was 4 µg/mL (≈ 9.25 µM).

**Q.** What does the source list for `C[C@@H](N(NC(=O)OC(C)(C)C)C(=S)Nc1ccc(F)cc1)[C@](O)(Cn1cncn1)c1ccc(F)cc1F` [Compound No. 1]?
**A.** MIC [3, 4]: > 16 µg/mL; MIC [3, 5]: > 16 µg/mL

**Q.** Which MIC [3, 4] does the source give for `C[C@@H](n1ncn(-c2ccc(C(F)(F)F)cc2)c1=S)[C@](O)(Cn1cncn1)c1ccc(F)cc1F` [Compound No. 45, 2-[(1R,2R)-2-(2,4-difluorophenyl)-2-hydroxy-1-methyl-3-(1,2,4-triazol-1-yl)propyl]-4-[4-trifluoromethylphenyl]-(2H,4H)-1,2,4-triazol-3-thione] here?
**A.** Its MIC is 1 µg/mL (≈ 2.01 µM).

**Q.** What about the MIC [3, 5] of the same compound?
**A.** Its MIC is 0.5 µg/mL (≈ 1.01 µM).

**Q.** For `C[C@@H](n1ncn(-c2ccc(O)cc2)c1=S)[C@](O)(Cn1cncn1)c1ccc(F)cc1F` [Compound No. 41, 2-[(1R,2R)-2-(2,4-difluorophenyl)-2-hydroxy-1-methyl-3-(1,2,4-triazol-1-yl)propyl]-4-[4-hydroxyphenyl]-(2H,4H)-1,2,4-triazol-3-thione], which MIC [3, 8] is on record?
**A.** Its MIC is greater than 16 µg/mL.

**Q.** What about the MIC [3, 9] of the same compound?
**A.** Its MIC is greater than 16 µg/mL.

**Q.** What does the source list for `C[C@@H](N(NC(=O)OC(C)(C)C)C(=S)Nc1ccc(-n2ncnn2)cc1)[C@](O)(Cn1cncn1)c1ccc(F)cc1F` [Compound No. 10, 1-t-Butoxycarbonyl-2-[(1R,2R)-2-(2,4-difluorophenyl)-2-hydroxy-1-methyl-3-(1H-1,2,4-triazol-1-yl)propyl]-4-[4-(1,2,3,4-tetrazol-2-yl)phenyl]thiosemicarbazide]?
**A.** MIC [3, 4]: > 16 µg/mL; MIC [3, 5]: > 16 µg/mL
